Assay: Cachexia markers Part I: serum albumin, pre-albumin, C-Reactive Protein, Phase I study; on C-Reactive Protein, Change from Baseline, Mean: test concentration or dose not given here; on C-Reactive Protein, Change from Baseline, Median: test concentration or dose not given here; on C-Reactive Protein, Observed Values, Mean: test concentration or dose not given here; on C-Reactive Protein, Observed Values, Median: test concentration or dose not given here; on Pre-albumin, Change from Baseline, Mean: test concentration or dose not given here; on Pre-albumin, Change from Baseline, Median: test concentration or dose not given here; on Pre-albumin, Observed Values, Mean: test concentration or dose not given here
Type: in vivo, human
Details: for C-Reactive Protein, Observed Values, Median / Pre-albumin, Change from Baseline, Mean / Pre-albumin, Change from Baseline, Median / Pre-albumin, Observed Values, Mean / Pre-albumin, Observed Values, Median / Serum Albumin, Change from Baseline, Mean / Serum Albumin, Change from Baseline, Median / Serum Albumin, Observed Values, Mean / Serum Albumin, Observed Values, Median / C-Reactive Protein, Change from Baseline, Mean / C-Reactive Protein, Change from Baseline, Median / C-Reactive Protein, Observed Values, Mean: ITT
From the text: The data for albumin, LDH and Bilirubin support claims reciting improvement in liver function by claimed treatment of a human host in need thereof. Serum LDH levels are an established strong independent negative prognostic factor, inversely related to survival in a great variety of adverse clinical conditions. In advanced refractory cancers, high LDH and low Karnofsky's performance status are among the strongest established independent negative prognostic factors of survival and quality of life (29).

## Nc1ncnc2c1ncn2[C@@H]1O[C@H](COP(=O)(O)OP(=O)(O)OP(=O)(O)O)[C@@H](O)[C@H]1O [ATP, adenosine 5′-triphosphate]
Week 4 (Infusion 4), N=9
  C-Reactive Protein, Observed Values, Median: 6.1 mg/dL
Week 4 (Infusion 4), N=10
  Pre-albumin, Change from Baseline, Mean: -1.3 mg/dL
  Pre-albumin, Change from Baseline, Median: 0.0 mg/dL
  Pre-albumin, Observed Values, Mean: 16.5 mg/dL
  Pre-albumin, Observed Values, Median: 17.0 mg/dL
Week 4 (Infusion 4), N=11
  Serum Albumin, Change from Baseline, Mean: -0.2 g/dL
  Serum Albumin, Change from Baseline, Median: -0.2 g/dL
  Serum Albumin, Observed Values, Mean: 3.2 g/dL
  Serum Albumin, Observed Values, Median: 3.0 g/dL
Week 6 (Infusion 6), N=8
  C-Reactive Protein, Change from Baseline, Mean: 0.2 mg/dL
  C-Reactive Protein, Change from Baseline, Median: 0.0 mg/dL
  C-Reactive Protein, Observed Values, Mean: 4.5 mg/dL
  C-Reactive Protein, Observed Values, Median: 2.5 mg/dL
  Pre-albumin, Change from Baseline, Mean: -7.5 mg/dL
  Pre-albumin, Change from Baseline, Median: -4.5 mg/dL
  Pre-albumin, Observed Values, Mean: 16.6 mg/dL
  Pre-albumin, Observed Values, Median: 16.0 mg/dL
Week 6 (Infusion 6), N=9
  Serum Albumin, Change from Baseline, Mean: -0.1 g/dL
  Serum Albumin, Change from Baseline, Median: -0.2 g/dL
  Serum Albumin, Observed Values, Mean: 3.2 g/dL
  Serum Albumin, Observed Values, Median: 3.1 g/dL
Week 8 (Infusion 8), N=6
  C-Reactive Protein, Change from Baseline, Mean: 3.7 mg/dL
  C-Reactive Protein, Change from Baseline, Median: 0.0 mg/dL
  C-Reactive Protein, Observed Values, Mean: 9.0 mg/dL
  C-Reactive Protein, Observed Values, Median: 4.7 mg/dL
Week 8 (Infusion 8), N=7
  Pre-albumin, Change from Baseline, Mean: -6.3 mg/dL
  Pre-albumin, Change from Baseline, Median: -4.0 mg/dL
  Pre-albumin, Observed Values, Mean: 19.6 mg/dL
  Pre-albumin, Observed Values, Median: 19.0 mg/dL
  Serum Albumin, Change from Baseline, Mean: -0.1 g/dL
  Serum Albumin, Change from Baseline, Median: -0.1 g/dL
  Serum Albumin, Observed Values, Mean: 3.3 g/dL
  Serum Albumin, Observed Values, Median: 3.4 g/dL
Week 10 (Follow-up), N=4
  C-Reactive Protein, Change from Baseline, Mean: 6.0 mg/dL
  C-Reactive Protein, Change from Baseline, Median: -0.7 mg/dL
  C-Reactive Protein, Observed Values, Mean: 11.2 mg/dL
  C-Reactive Protein, Observed Values, Median: 7.0 mg/dL
Week 10 (Follow-up), N=6
  Pre-albumin, Change from Baseline, Mean: -8.3 mg/dL
  Pre-albumin, Change from Baseline, Median: -1.0 mg/dL
  Pre-albumin, Observed Values, Mean: 20.2 mg/dL
  Pre-albumin, Observed Values, Median: 18.5 mg/dL
  Serum Albumin, Change from Baseline, Mean: 0.0 g/dL
  Serum Albumin, Change from Baseline, Median: -0.1 g/dL
  Serum Albumin, Observed Values, Mean: 3.6 g/dL
  Serum Albumin, Observed Values, Median: 3.7 g/dL
Week 13 (Follow-up), N=5
  C-Reactive Protein, Change from Baseline, Mean: 5.3 mg/dL
  C-Reactive Protein, Change from Baseline, Median: 0.0 mg/dL
  C-Reactive Protein, Observed Values, Mean: 9.1 mg/dL
  C-Reactive Protein, Observed Values, Median: 0.4 mg/dL
  Pre-albumin, Change from Baseline, Mean: -8.4 mg/dL
  Pre-albumin, Change from Baseline, Median: 0.0 mg/dL
  Pre-albumin, Observed Values, Mean: 22.4 mg/dL
  Pre-albumin, Observed Values, Median: 24.0 mg/dL
Week 13 (Follow-up), N=6
  Serum Albumin, Change from Baseline, Mean: -0.0 g/dL
  Serum Albumin, Change from Baseline, Median: -0.1 g/dL
  Serum Albumin, Observed Values, Mean: 3.5 g/dL
  Serum Albumin, Observed Values, Median: 3.5 g/dL
After 13 weeks
  levels of C-Reactive Protein: continued to increase
  levels of pre-albumin: decreased
  serum albumin levels: stabilize and prevent a drop

Source: patent US20070203091A1, “Methods and therapeutic compositions for improving liver, blood flow and skeletal muscle functions in advanced diseases and aging” (priority 2006, published 2007)
